Tests used:
[1] = effect of maternal administration on blood pressure and heart rate in E22 rabbit dams; assay type: in vivo, New Zealand white rabbit
Protocol: Because of the importance of eNOS to the regulation of cardiovascular activity, the effect of maternal administration of 4 and 5 on blood pressure in 22 day-gestation (E22) New Zealand white rabbit dams was determined. There was no effect on heart rate or on systolic or diastolic blood pressure by treatment with 4 or 5.

[2] = test system: hypoxia-ischemia of rabbit fetuses; experiment: uterine ischemia, global hypoxia-ischemia of rabbit fetuses, neurobehavioral examination of P1 kits; settings: for number of normal postnatal P1 kits: compared to saline-treated dams; for protection against HI-fetal brain injury: comparison with 7-NI, p<0.05 Fisher's Exact Test; for permeability to the fetal brain: maternal administration
[3] = test system: total constitutive NOS activity (both nNOS and eNOS) in fetal brain homogenates; experiment: NOS activity and NOx levels in fetal brain after maternal administration; assay type: in vivo; settings: E22 rabbit dams
Description: The NOS activity assay in fetal brain homogenates assessed total constitutive NOS activity (i.e., both nNOS and eNOS). […] Therefore changes in NOS activity should correspond to changes in nNOS activity. […] The corresponding decrease in the NO concentration also indicated strong NOS inhibition had occurred.

[4] = Paudler and Blewitt, 1966; cited from earlier work
whole body ischemia = settings: in vivo; cited from earlier work
nNOS = nNOS (Rattus norvegicus, UniProt P29476); settings: read-out: Ki nNOS
iNOS = iNOS (Mus musculus, UniProt P29477); experiment: biochemical
Chain of iNOS (P29477 whole entry): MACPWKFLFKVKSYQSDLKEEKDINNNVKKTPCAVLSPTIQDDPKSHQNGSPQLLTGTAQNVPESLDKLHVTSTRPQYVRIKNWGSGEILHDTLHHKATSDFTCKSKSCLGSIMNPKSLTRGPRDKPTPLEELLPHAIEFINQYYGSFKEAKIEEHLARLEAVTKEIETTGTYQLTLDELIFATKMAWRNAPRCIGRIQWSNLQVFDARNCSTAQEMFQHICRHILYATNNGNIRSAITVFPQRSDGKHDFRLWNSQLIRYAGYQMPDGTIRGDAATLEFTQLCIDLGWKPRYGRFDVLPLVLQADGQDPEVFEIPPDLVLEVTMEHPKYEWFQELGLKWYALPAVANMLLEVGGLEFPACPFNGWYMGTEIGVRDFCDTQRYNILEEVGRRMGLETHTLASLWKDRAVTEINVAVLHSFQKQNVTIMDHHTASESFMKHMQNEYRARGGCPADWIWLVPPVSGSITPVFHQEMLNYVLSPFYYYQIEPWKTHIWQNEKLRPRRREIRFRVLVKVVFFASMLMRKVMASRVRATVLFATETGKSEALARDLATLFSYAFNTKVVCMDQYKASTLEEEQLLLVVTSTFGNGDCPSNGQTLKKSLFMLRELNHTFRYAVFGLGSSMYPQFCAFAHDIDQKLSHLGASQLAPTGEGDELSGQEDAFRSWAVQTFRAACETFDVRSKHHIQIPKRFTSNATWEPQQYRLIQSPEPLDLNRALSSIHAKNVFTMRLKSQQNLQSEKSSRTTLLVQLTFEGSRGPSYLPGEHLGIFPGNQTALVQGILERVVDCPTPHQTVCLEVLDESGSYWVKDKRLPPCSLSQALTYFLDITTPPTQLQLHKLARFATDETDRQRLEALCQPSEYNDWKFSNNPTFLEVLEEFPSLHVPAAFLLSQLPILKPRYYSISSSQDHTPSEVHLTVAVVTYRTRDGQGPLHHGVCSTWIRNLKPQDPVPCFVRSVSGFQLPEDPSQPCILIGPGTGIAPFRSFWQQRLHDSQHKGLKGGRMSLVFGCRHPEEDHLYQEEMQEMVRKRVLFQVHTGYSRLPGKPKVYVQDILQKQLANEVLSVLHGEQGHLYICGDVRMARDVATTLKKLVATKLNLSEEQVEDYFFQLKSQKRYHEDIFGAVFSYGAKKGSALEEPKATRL

## Cc1cc(N)nc(C[C@H]2CNC[C@H]2NCCNCc2ccc(Cl)cc2)c1 (racemic) [(±)-4]
[1]
  effect on heart rate: no effect
  effect on systolic or diastolic blood pressure: no effect
[2]; 0/49 is stated for either 4 or 5
  incidence of fetal death (dead/total fetuses): 0/49
[2]; Dose 75 ki × 2, Age 22
  Normal (number of kits): 9
  Severe (number of kits): 2
[2]; Dose 75 ki × 2, Age 25
  Severe (number of kits): 2
[2]; Dose 75 ki × 2, Age 29
  Normal (number of kits): 10
[2]
  number of normal postnatal P1 kits: substantially larger number
  protection against HI-fetal brain injury: superior to 7-NI
  permeability to the fetal brain: permeable
[2]; inhibitor 30 min prior to and immediately after uterine ischemia
  fetal/neonatal deaths: no deaths

## Cc1cc(N)nc(C[C@H]2CNC[C@H]2NCCNCCc2cccc(F)c2)c1 (racemic) [(±)-5]
[1]
  effect on heart rate: no effect
  effect on systolic or diastolic blood pressure: no effect
[3]; after maternal treatment
  NO concentration (NOx) in fetal brain: decrease
[3]; shortly after acute maternal treatment
  NOS activity in fetal brain: NOS inhibition was observed
[2]; administered post-ischemia
  effect when administered post-ischemia: no effect
[2]
  number of normal postnatal P1 kits: substantially larger number
  protection against HI-fetal brain injury: superior to 7-NI
  permeability to the fetal brain: permeable
[2]; rabbit, in vivo
  fetal/neonatal deaths: no deaths
  incidence of fetal death (dead/total fetuses): 0/49

## Cc1cc(N)nc(C[C@H]2CNC[C@H]2NCCNCCc2ccccc2)c1 (relative stereo) [JI-6]
[2]; Dose 200 ki × 2, Age 22
  Normal (number of kits): 9

## Cc1cc(C)nc(N)c1 [2-amino-4,6-dimethylpyridine]
[4]
  pKa: 7.12

## O=[N+]([O-])c1cccc2cn[nH]c12 [7-NI, 7-nitroindazole, reference compound]
[2]; rabbit, in vivo
  incidence of fetal death (dead/total fetuses): 10/38
  incidence of fetal death (stillborn): 26%

## FC(F)(F)c1ccccc1-n1ccnc1 [TRIM]
Whole body ischemia
  outcome following whole body ischemia: worse outcome

## N=C(NCCC[C@H](N)C(=O)N[C@H]1CN[C@H](C(N)=O)C1)N[N+](=O)[O-] [compound 3]
nNOS
  Ki: 100 nM
iNOS
  Ki: 29 µM

## N=C(NCCC[C@H](N)C(=O)O)N[N+](=O)[O-] [εNNA, L-N^ω-nitroarginine]
iNOS
  Ki: 4.55 µM

— patent US20080176907A1, “NOS Inhibitors For Treatment Of Motor Deficit Disorders” (Northwestern University, priority 2006, published 2008)
